Reference: ChEMBL document CHEMBL1201862, “PubChem BioAssay data set” (2004)
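Exposure lasted 48 hours, with cells grown in 96-well plates and compounds tested at five concentrations. Here, GI50 denotes the concentration required for 50% inhibition of growth.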 The source made the active and inactive calls. Cut-off read from the data, not from the text of the source: active = GI50 up to about 1.1 µM and inactive = higher.

How the values were obtained:
Assay in all cases: NCI anticancer screen, dose series, 48 h
MOLT-4 = system: MOLT-4
MCF7 = system: MCF7
OVCAR-5 = system: OVCAR-5
Malme-3M = system: Malme-3M
TK-10 = system: TK-10
CCRF-CEM = system: CCRF-CEM
EKVX = system: EKVX
RXF 393 = system: RXF 393
UACC-257 = system: UACC-257
T47D = system: T47D
HL-60 = system: HL-60
MDA-MB-435 = system: MDA-MB-435
SK-MEL-5 = system: SK-MEL-5
Hs-578T = system: Hs-578T
786-0 = system: 786-0
HT-29 = system: HT-29
RPMI-8226 = system: RPMI-8226
NCI-H226 = system: NCI-H226
HOP-62 = system: HOP-62
K562 = system: K562
U-251 = system: U-251
IGROV-1 = system: IGROV-1
SF-295 = system: SF-295
DU-145 = system: DU-145
NCI-H23 = system: NCI-H23
A549 = system: A549
SW-620 = system: SW-620
HOP-92 = system: HOP-92
HCT-15 = system: HCT-15
SK-MEL-2 = system: SK-MEL-2
M14 = system: M14
BT-549 = system: BT-549
KM12 = system: KM12
SNB-19 = system: SNB-19
SN12C = system: SN12C
COLO 205 = system: COLO 205
PC-3 = system: PC-3
ACHN = system: ACHN
OVCAR-4 = system: OVCAR-4
A498 = system: A498
LOX IMVI = system: LOX IMVI
UO-31 = system: UO-31
UACC-62 = system: UACC-62
SF-539 = system: SF-539
CAKI-1 = system: CAKI-1
SR = system: SR
SK-MEL-28 = system: SK-MEL-28
OVCAR-8 = system: OVCAR-8
SF-268 = system: SF-268
SK-OV-3 = system: SK-OV-3
MDA-N = system: MDA-N
HCC 2998 = system: HCC 2998
OVCAR-3 = system: OVCAR-3
NCI/ADR-RES = system: NCI/ADR-RES
NCI-H460 = system: NCI-H460
HCT-116 = system: HCT-116
NCI-H522 = system: NCI-H522
MDA-MB-231 = system: MDA-MB-231

Compound: CC(=O)N[C@@H](Cc1ccc(O)cn1)C(=O)NCc1ccc2c(c1)OCO2
- GI50 (MOLT-4): > 100 µM (inactive)
- GI50 (MCF7): > 100 µM (inactive)
- GI50 (OVCAR-5): > 100 µM (inactive)
- GI50 (Malme-3M): > 100 µM (inactive)
- GI50 (TK-10): > 100 µM (inactive)
- GI50 (CCRF-CEM): > 100 µM (inactive)
- GI50 (EKVX): > 100 µM (inactive)
- GI50 (RXF 393): > 100 µM (inactive)
- GI50 (UACC-257): > 100 µM (inactive)
- GI50 (T47D): > 100 µM (inactive)
- GI50 (HL-60): > 100 µM (inactive)
- GI50 (MDA-MB-435): > 100 µM (inactive)
- GI50 (SK-MEL-5): > 100 µM (inactive)
- GI50 (Hs-578T): > 100 µM (inactive)
- GI50 (786-0): > 100 µM (inactive)
- GI50 (HT-29): > 100 µM (inactive)
- GI50 (RPMI-8226): > 100 µM (inactive)
- GI50 (NCI-H226): > 100 µM (inactive)
- GI50 (HOP-62): > 100 µM (inactive)
- GI50 (K562): > 100 µM (inactive)
- GI50 (U-251): > 100 µM (inactive)
- GI50 (IGROV-1): > 100 µM (inactive)
- GI50 (SF-295): > 100 µM (inactive)
- GI50 (DU-145): > 100 µM (inactive)
- GI50 (NCI-H23): > 100 µM (inactive)
- GI50 (A549): > 100 µM (inactive)
- GI50 (SW-620): > 100 µM (inactive)
- GI50 (HOP-92): > 100 µM (inactive)
- GI50 (HCT-15): > 100 µM
- GI50 (SK-MEL-2): > 100 µM (inactive)
- GI50 (M14): > 100 µM (inactive)
- GI50 (BT-549): > 100 µM (inactive)
- GI50 (KM12): > 100 µM (inactive)
- GI50 (SNB-19): > 100 µM (inactive)
- GI50 (SN12C): > 100 µM (inactive)
- GI50 (COLO 205): > 100 µM (inactive)
- GI50 (PC-3): > 100 µM (inactive)
- GI50 (ACHN): > 100 µM (inactive)
- GI50 (OVCAR-4): > 100 µM (inactive)
- GI50 (A498): > 100 µM (inactive)
- GI50 (LOX IMVI): > 100 µM (inactive)
- GI50 (UO-31): > 100 µM (inactive)
- GI50 (UACC-62): > 100 µM (inactive)
- GI50 (SF-539): > 100 µM (inactive)
- GI50 (CAKI-1): > 100 µM (inactive)
- GI50 (SR): > 100 µM (inactive)
- GI50 (SK-MEL-28): > 100 µM (inactive)
- GI50 (OVCAR-8): > 100 µM (inactive)
- GI50 (SF-268): > 100 µM (inactive)
- GI50 (SK-OV-3): > 100 µM (inactive)
- GI50 (MDA-N): > 100 µM (inactive)
- GI50 (HCC 2998): > 100 µM (inactive)
- GI50 (OVCAR-3): > 100 µM (inactive)
- GI50 (NCI/ADR-RES): > 100 µM (inactive)
- GI50 (NCI-H460): > 100 µM (inactive)
- GI50 (HCT-116): > 100 µM (inactive)
- GI50 (NCI-H522): > 100 µM (inactive)

Compound: O=C1C=CC(=O)c2c(NCC3CC3)ccc(NCC3CC3)c21
- GI50 (MOLT-4): 11.8 µM (inactive)
- GI50 (MCF7): 24.7 µM (inactive)
- GI50 (OVCAR-5): 59 µM (inactive)
- GI50 (Malme-3M): 19.8 µM (inactive)
- GI50 (TK-10): > 100 µM (inactive)
- GI50 (EKVX): 29 µM (inactive)
- GI50 (UACC-257): 29.3 µM (inactive)
- GI50 (T47D): 6.34 µM (inactive)
- GI50 (HL-60): 11 µM (inactive)
- GI50 (MDA-MB-435): 19.7 µM (inactive)
- GI50 (MDA-MB-231): 36.1 µM (inactive)
- GI50 (SK-MEL-5): 22.6 µM (inactive)
- GI50 (Hs-578T): 82.8 µM (inactive)
- GI50 (786-0): 56.4 µM (inactive)
- GI50 (HT-29): 32.2 µM (inactive)
- GI50 (RPMI-8226): 17.1 µM (inactive)
- GI50 (HOP-62): > 100 µM (inactive)
- GI50 (K562): 22.5 µM (inactive)
- GI50 (U-251): 55.7 µM (inactive)
- GI50 (IGROV-1): 47.9 µM (inactive)
- GI50 (SF-295): 33.7 µM (inactive)
- GI50 (NCI-H23): 26.4 µM (inactive)
- GI50 (A549): 47.8 µM (inactive)
- GI50 (SW-620): 34.5 µM (inactive)
- GI50 (HCT-15): 13.3 µM
- GI50 (SK-MEL-2): 50.4 µM (inactive)
- GI50 (M14): 18.5 µM (inactive)
- GI50 (BT-549): 25.9 µM (inactive)
- GI50 (KM12): 33.6 µM (inactive)
- GI50 (SNB-19): > 100 µM (inactive)
- GI50 (SN12C): 23.2 µM (inactive)
- GI50 (COLO 205): 19.7 µM (inactive)
- GI50 (PC-3): 46.2 µM (inactive)
- GI50 (ACHN): 39.9 µM (inactive)
- GI50 (A498): 60.5 µM (inactive)
- GI50 (LOX IMVI): 20.7 µM (inactive)
- GI50 (UO-31): 75.2 µM (inactive)
- GI50 (UACC-62): 18.3 µM (inactive)
- GI50 (SF-539): 25.5 µM (inactive)
- GI50 (SR): 21.9 µM (inactive)
- GI50 (SK-MEL-28): 28.6 µM (inactive)
- GI50 (OVCAR-8): 56.2 µM (inactive)
- GI50 (HCC 2998): 57.5 µM (inactive)
- GI50 (OVCAR-3): 26.7 µM (inactive)
- GI50 (NCI/ADR-RES): 64.1 µM (inactive)
- GI50 (NCI-H460): 60.8 µM (inactive)
- GI50 (HCT-116): 37.8 µM (inactive)
- GI50 (NCI-H522): 1.05 µM (active)
